{"source": "patent US20120077738A1", "about": "“COMPOSITIONS AND METHODS FOR […] SUSCEPTIBILITY TO ANTIVIRAL AGENTS” (priority 2010, published 2012)", "tested_on": "genotype 1 HCV", "assay": "HCV outcome after liver transplant in HIV/HCV coinfected patients by calcineurin inhibitor", "type": "in vivo, human", "excerpt": "Calcineurin Inhibition Use posttransplant in HIV/HCV infected patients. Eighty HIV/HCV coinfected patients received liver transplants as part of the HIV and transplantation trial from 2003-2009. Of these patients 61 were infected with genotype 1 HCV and received only a liver (not liver+kidney) and are further described here and in the corresponding data shown in FIGS. 1-14.", "data": [{"smiles": "C=CC[C@@H]1/C=C(\\C)C[C@H](C)C[C@H](OC)[C@H]2O[C@@](O)(C(=O)C(=O)N3CCCC[C@H]3C(=O)O[C@H](/C(C)=C/[C@@H]3CC[C@@H](O)[C@H](OC)C3)[C@H](C)[C@@H](O)CC1=O)[C@H](C)C[C@@H]2OC", "note": "[Tacrolimus]", "values": [{"measurement": "failed interferon therapy", "setting": "by calcineurin inhibitor started immediately post transplant, two of the CsA group had switched to Tacrolimus", "result": 13, "unit": "patients"}, {"measurement": "Sustained Virologic Response (negative HCV PCR 6 months or more after HCV therapy was stopped)", "setting": "patients on Tacrolimus immediately post transplant who received interferon based therapy", "result": "one patient out of these 14"}]}]}
